# Measurements reported in US12171813B2, “Methods of and compositions for reducing gene expression and/or activity” (Christiana Care Gene Editing Institute, Inc., priority 2021, dated 2024).
# Test system: NFE2L2 gene
# Test: Screening of SureKill guide RNAs in the NFE2L2 gene for ability to induce indels
# Type: cell-based, Human
# Settings: transfections of individual guide RNAs (spCas9 RNP); NCI-H1703 clone 44-25 cells; DECODR
# Protocol: (§1) Human lung squamous cell carcinoma NCI-H1703 clone 44-25 cells were derived from NCI-H1703 cells (#CRL-5889) which were purchased from ATCC (Manassas, VA, USA). NCI-H1703 clone 44-25 cells contains R34G mutation (C 4 G) in NFE2L2 gene. H1703 clone 44-25 cells were cultured in ATCC formulation RPMI-1640 with 10% FBS. T75 flasks were used and cells were split 1:5 upon reaching 90% confluency. Human lung adenocarcinoma cells (Dist. Lot. No. LG0703-F948-PDC) were acquired from the National Institute of Health's National Cancer Institute's Patient-Derived Models Repository (PDMR). This PDMR cell line contains the L858R mutation (T 4 G) in the EGFR gene. The PDMR cells were maintained in Advanced DMEM/F12 media containing 10% FBS, 0.4 μg/mL hydrocortisone, 0.01 μg/mL EGF Recombinant Human Protein, 24 μg/mL adenine, and 2 mM L-Glutamine. T75s were used and cells were split 1:3 upon reaching 90% confluency. All cultures were maintained in cell culture incubators at 37° C. and 5% CO2.
# (§2) Ribonucleoproteins (RNP) are complexed by incubating 250 pmol of purified synthetic gRNA (Synthego Corporation, Redwood City, CA) with 50 pmol of purified spCas9 (Synthego Corporation, Redwood City, CA) at room temperature in nuclease-free 1× TE buffer for 15 minutes.
# (§3) Transfections were carried out using the Lonza Nuclefector 4d. Cultures in t75s at 90% confluence were split 1:2 24 hours prior to transfection. RNPs were complexed at 250:50 pmol for 30 minutes prior to transfection, during which time cells were harvested and counted. All reactions were 100 μL and contained 1 e6 cells. Lonza SF solution and Nucleofector program CM-130 were used in all transfections of the H1703 cell line. Lonza SE solution and Nucleofector program CA-137 were used in all transfections of the PDMR. After transfection, 500 μL of media that had been equilibrated to cell culture CO2 and temperature conditions was added to each 100 μL cuvettes. Cuvettes were then placed in the incubator. After 20 minutes, the entire content of each cuvette was seeded into 3 mL of media in a 6 well plate. After 72 hours, samples were dissociated using 200 μL Trypsin 0.25% for 5 minutes. 800 μL culture media was used to quench and split into 1.5 mL tubes each containing 500 μL of the sample. Tubes were spun at 300×g for 5 minutes. One of the tubes was placed in the −20° C. freezer and the other was resuspended in 500 μL of Trizol for RNA extraction and cDNA synthesis.
# (§4) All sequencing was performed on the Applied Biosystems SeqStudio. The BigDye Terminator v3.1 Cycle Sequencing Kit was used to prepare samples for sequencing. Resulting sequences were analyzed with DECODR to determine indel rates (Bloh et al., CRISPR J. 4:120-31 (2021)).
# In some cancers, human NRF2 contains a mutation, R34G, that creates a novel PAM site making it a targetable sequence by CRISPR. By combining the R34G-targeting CRISPR with another CRISPR of high efficiency in a downstream intronic region, exon skipping can be induced, resulting in a higher efficiency of functional knockout than the R34G targeting CRISPR alone. To find a suitable SureKill guide RNA (gRNA) to pair with the R34G targeting CRISPR, we selected the intron between exons 3 and 4 (FIG. 2). A series of gRNAs were created in this region and screened for their ability to induce indels, a measure of their activity (Table 2).
# In Table 2, all sequences are listed from 5′ to 3′. Indel %, a measure of CRISPR activity, is based on transfections of individual guide RNAs. All guide RNAs, with the exception of R34G, were designed in the intron between exons 3 and 4.
row,Substance,indel %
1,"NRF2 3-4 SureKill gRNA 32: NRF2 intron 3-4 guide RNA GGTTATGCTGTCCATGTTTC, SEQ ID NO:34 (listed as DNA, chemistry not given here)",47.8%
2,"NRF2 3-4 SureKill gRNA 10: NRF2 intron 3-4 guide RNA GGTTTTGTATTGTGTGAA, SEQ ID NO:15 (listed as DNA, chemistry not given here)",32.2%
3,"NRF2 3-4 SureKill gRNA 31: NRF2 intron 3-4 guide RNA GTTTGGTGAGTAAAGAGCCAGC, SEQ ID NO:33 (listed as DNA, chemistry not given here)",14.55%
4,"NRF2 3-4 SureKill gRNA 29b: NRF2 intron 3-4 guide RNA GATTTATGAGTCTTCCACCAAC, SEQ ID NO:31 (listed as DNA, chemistry not given here)",11.8%
5,"NRF2 3-4 SureKill gRNA 29a: NRF2 intron 3-4 guide RNA GATTCCATTTTGTTTTGTAG, SEQ ID NO:30 (listed as DNA, chemistry not given here)",11.85%
6,"NRF2 3-4 SureKill gRNA 26: NRF2 intron 3-4 guide RNA GCTTACTCATCCCCTGTTGG, SEQ ID NO:28 (listed as DNA, chemistry not given here)",89.65%

# Test system: EGFR gene
# Test: Screening of SureKill guide RNAs in the EGFR gene for ability to induce indels
# Type: cell-based
# Settings: transfections of individual guide RNAs (spCas9 RNP); PDMR human lung adenocarcinoma cells with EGFR L858R; DECODR
# Protocol: as §1, §2, §3, §4
# Human EGFR is a frequently mutated gene that is associated with cancers. One of the most common mutations is L858R which results in the creation of a novel PAM site, making it a targetable sequence by CRISPR. Like the R34G mutation, the CRISPR designed to target the L858R mutation is not highly efficient on its own. By combining the L858R-targeting CRISPR with another CRISPR of high efficiency in a downstream intronic region, exon skipping can be induced, resulting in a higher efficiency of functional knockout than the L858R targeting CRISPR alone. To find a suitable gRNA to pair with the L858R targeting CRISPR, we selected the intron between exons 21 and 22 (FIG. 6). A series of gRNAs were created in this region and screened for their ability to induce indels, a measure of their activity using DECODR (Bloh et al., CRISPR J. 4:120-31 (2021)) (Table 3).
# In Table 3, all sequences are listed from 5′ to 3′. Indel percent, a measure of CRISPR activity, is based on transfections of individual guide RNAs. All guide RNAs, with the exception of L858R, were designed in the intron between exons 21 and 22.
row,Substance,indel %
1,"EGFR 21-22 SureKill gRNA 29: EGFR intron 21-22 guide RNA GTTAAACAATACAGCTAGT, SEQ ID NO:52 (listed as DNA, chemistry not given here)",100%
2,"EGFR 21-22 SureKill gRNA 23: EGFR intron 21-22 guide RNA GCATTTTCCTGACACCAGGGACC, SEQ ID NO:47 (listed as DNA, chemistry not given here)",96.15%
3,"EGFR 21-22 SureKill gRNA 2: EGFR intron 21-22 guide RNA GTATTGTTTAACACATGCAG, SEQ ID NO:10 (listed as DNA, chemistry not given here)",2%
4,"EGFR 21-22 SureKill gRNA 10B: EGFR intron 21-22 guide RNA GTATTGTTTAACACATGCAGGGG, SEQ ID NO:36 (listed as DNA, chemistry not given here)",0%
5,"EGFR 21-22 SureKill gRNA 10A: EGFR intron 21-22 guide RNA GTTTAACACATGCAGGGG, SEQ ID NO:35 (listed as DNA, chemistry not given here)",0%

# Test system: NRF2
# Test: cDNA PCR analysis of exon skipping / full-size transcript in NFE2L2
# Type: cell-based, Human
# Settings: gRNA individually applied in the CRISPR reaction; NCI-H1703 clone 44-25 cells
# Protocol: After CRISPR reactions, total RNA was prepared, and cDNA synthesized for PCR amplification of the target region from NRF2. PCR-amplified DNA was then analyzed by electrophoresis through a 1% agarose gel for 75 minutes at 80v. DNA was stained with SYBR Safe. Lanes 1 and 10: NEB 2 Log Ladder; Lane 2: Scrambled gRNA; Lane 3: NRF2 3-4 SureKill gRNA 3 alone; Lane 4: NRF2 3-4 SureKill gRNA 12 alone; Lane 5: NRF2 3-4 SureKill gRNA 14 alone; Lane 6: NRF2 3-4 SureKill gRNA 15 alone; Lane 7: NRF2 3-4 SureKill gRNA 21 alone; Lane 8: NRF2 3-4 SureKill gRNA 25 alone; Lane 9: NRF2 3-4 SureKill gRNA 26 alone. On the left side of the image are markers indicating DNA size in bp.
# After CRISPR reactions, total RNA was prepared, and cDNA synthesized for PCR amplification of the target region from NRF2. PCR-amplified DNA was then analyzed by electrophoresis through a 1% agarose gel for 75 minutes at 80v. DNA was stained with SYBR Safe. Lane 1: NEB 2 Log Ladder; Lane 2: Scrambled gRNA; Lane 3: R34G gRNA alone; Lane 4: NRF2 3-4 SureKill gRNA 3+R34G gRNA; Lane 5: NRF2 3-4 SureKill gRNA+R34G gRNA; Lane 6: NRF2 3-4 SureKill gRNA 14+R34G gRNA. […]
# Transfections were carried out using the Lonza Nuclefector 4d. […] RNPs were complexed at 250:50 pmol for 30 minutes prior to transfection, during which time cells were harvested and counted. […]
row,Substance,exon skipping (cDNA analysis)
1,"NRF2 3-4 SureKill gRNA 26: NRF2 intron 3-4 guide RNA GCTTACTCATCCCCTGTTGG, SEQ ID NO:28 (listed as DNA, chemistry not given here)",some level of exon skipping
